# Literature values in US20090214598A1, “Monovalent and polyvalent synthetic polysaccharide antigens for immunological intervention in disease” (Eli Lilly and Company, priority 2005, published 2009).
# Conditions: literature reports (U.S. Pat. No. 4,395,399; Chedid 1983)
smiles,measurement,value
"CC(=O)N[C@H]1C(O)O[C@H](CO)[C@@H](O)[C@@H]1O[C@H](C)C(=O)N[C@@H](C)C(=O)N[C@H](CCC(=O)O)C(N)=O (mixture of isomers) [MDP, muramyl dipeptide]",inflammatory response as reported,inflammatory in nature
